Reference: ChEMBL document CHEMBL5291721, “A preclinical secondary pharmacology resource illuminates target-adverse drug reaction associations of marketed drugs” (Nat Commun, 2023)

Tests used:
[1] = target: 3',5'-cyclic-AMP phosphodiesterase 4D (Homo sapiens, UniProt Q08499); format: functional
[2] = target: T1, Alpha-2A adrenergic receptor (Homo sapiens, UniProt P08913); format: functional, cell-based
T1 sequence (P08913 whole entry): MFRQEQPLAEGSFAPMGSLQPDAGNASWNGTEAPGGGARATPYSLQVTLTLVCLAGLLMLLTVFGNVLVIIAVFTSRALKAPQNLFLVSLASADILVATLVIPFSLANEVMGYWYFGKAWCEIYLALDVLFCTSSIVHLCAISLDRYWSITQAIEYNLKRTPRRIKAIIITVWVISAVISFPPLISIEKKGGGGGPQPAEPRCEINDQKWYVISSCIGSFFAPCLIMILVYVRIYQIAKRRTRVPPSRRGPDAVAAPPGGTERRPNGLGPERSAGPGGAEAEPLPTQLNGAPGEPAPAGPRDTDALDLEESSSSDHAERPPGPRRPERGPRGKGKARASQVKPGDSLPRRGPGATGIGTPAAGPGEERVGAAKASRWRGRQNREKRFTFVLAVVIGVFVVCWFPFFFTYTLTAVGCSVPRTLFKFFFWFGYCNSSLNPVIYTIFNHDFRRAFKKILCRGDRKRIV

[3] = target: T2, Muscarinic acetylcholine receptor M1 (Homo sapiens, UniProt P11229); format: functional
T2 sequence (P11229 whole entry): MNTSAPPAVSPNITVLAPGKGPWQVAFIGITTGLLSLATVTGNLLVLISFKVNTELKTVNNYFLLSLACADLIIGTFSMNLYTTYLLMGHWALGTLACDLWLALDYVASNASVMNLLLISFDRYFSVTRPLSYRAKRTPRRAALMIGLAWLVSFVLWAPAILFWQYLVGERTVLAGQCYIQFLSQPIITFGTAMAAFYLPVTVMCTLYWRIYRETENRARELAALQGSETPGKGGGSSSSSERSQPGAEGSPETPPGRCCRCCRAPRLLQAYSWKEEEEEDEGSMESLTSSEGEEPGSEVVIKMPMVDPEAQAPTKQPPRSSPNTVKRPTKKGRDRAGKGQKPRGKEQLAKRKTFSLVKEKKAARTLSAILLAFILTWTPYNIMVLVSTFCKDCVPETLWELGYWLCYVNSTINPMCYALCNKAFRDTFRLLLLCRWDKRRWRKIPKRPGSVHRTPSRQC

[4] = target: Neuronal acetylcholine receptor subunit alpha-4 (Homo sapiens, UniProt P43681)
Sequence of Neuronal acetylcholine receptor subunit alpha-4 (P43681 whole entry): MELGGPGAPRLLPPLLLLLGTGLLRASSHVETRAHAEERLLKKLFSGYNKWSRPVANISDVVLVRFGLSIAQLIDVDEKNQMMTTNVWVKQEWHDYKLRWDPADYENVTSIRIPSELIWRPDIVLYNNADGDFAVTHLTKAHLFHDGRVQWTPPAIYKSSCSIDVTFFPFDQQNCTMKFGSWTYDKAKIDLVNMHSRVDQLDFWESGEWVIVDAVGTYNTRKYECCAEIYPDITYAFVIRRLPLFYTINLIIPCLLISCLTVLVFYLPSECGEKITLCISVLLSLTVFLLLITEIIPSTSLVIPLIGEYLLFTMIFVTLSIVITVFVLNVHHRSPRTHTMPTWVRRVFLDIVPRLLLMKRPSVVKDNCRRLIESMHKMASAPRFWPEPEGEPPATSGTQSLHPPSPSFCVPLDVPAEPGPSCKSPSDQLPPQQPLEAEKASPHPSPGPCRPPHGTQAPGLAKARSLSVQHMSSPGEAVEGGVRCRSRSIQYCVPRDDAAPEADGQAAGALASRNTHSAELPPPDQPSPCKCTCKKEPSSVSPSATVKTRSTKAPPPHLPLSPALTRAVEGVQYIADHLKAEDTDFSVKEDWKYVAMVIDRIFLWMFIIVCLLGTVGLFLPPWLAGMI

[5] = target: T3, 5-hydroxytryptamine receptor 1A (Homo sapiens, UniProt P08908); format: functional, cell-based
T3 sequence (P08908 whole entry): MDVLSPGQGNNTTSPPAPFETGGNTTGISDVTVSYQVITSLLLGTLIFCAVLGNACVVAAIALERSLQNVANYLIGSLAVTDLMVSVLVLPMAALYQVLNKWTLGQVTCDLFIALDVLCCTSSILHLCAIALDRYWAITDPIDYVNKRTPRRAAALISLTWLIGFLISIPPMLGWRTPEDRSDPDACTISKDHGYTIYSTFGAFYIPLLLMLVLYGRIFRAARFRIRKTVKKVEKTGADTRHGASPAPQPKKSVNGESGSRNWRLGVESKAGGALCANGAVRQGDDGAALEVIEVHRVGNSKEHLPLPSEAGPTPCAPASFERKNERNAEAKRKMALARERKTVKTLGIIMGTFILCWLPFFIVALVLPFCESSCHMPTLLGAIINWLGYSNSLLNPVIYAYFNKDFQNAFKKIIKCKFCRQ

[6] = target: Sodium-dependent dopamine transporter (Homo sapiens, UniProt Q01959)
Sequence of Sodium-dependent dopamine transporter (Q01959 whole entry): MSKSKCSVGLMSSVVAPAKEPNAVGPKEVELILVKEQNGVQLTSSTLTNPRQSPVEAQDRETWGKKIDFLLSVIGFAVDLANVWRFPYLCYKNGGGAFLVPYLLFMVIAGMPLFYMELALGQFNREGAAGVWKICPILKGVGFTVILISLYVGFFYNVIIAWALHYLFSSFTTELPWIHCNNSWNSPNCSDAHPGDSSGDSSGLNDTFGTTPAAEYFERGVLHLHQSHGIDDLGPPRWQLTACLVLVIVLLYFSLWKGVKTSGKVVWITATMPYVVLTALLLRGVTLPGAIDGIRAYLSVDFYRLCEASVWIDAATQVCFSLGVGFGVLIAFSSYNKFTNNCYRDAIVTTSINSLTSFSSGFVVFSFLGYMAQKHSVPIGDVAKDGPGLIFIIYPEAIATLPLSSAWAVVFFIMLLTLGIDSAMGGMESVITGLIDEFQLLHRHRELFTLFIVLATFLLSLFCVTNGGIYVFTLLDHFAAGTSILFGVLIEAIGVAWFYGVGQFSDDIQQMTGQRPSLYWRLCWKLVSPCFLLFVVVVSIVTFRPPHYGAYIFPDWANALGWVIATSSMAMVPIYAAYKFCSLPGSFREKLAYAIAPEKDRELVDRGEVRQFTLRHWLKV

[7] = target: 5-hydroxytryptamine receptor 2B (Homo sapiens, UniProt P41595); format: functional, cell-based
Sequence of 5-hydroxytryptamine receptor 2B (P41595 whole entry): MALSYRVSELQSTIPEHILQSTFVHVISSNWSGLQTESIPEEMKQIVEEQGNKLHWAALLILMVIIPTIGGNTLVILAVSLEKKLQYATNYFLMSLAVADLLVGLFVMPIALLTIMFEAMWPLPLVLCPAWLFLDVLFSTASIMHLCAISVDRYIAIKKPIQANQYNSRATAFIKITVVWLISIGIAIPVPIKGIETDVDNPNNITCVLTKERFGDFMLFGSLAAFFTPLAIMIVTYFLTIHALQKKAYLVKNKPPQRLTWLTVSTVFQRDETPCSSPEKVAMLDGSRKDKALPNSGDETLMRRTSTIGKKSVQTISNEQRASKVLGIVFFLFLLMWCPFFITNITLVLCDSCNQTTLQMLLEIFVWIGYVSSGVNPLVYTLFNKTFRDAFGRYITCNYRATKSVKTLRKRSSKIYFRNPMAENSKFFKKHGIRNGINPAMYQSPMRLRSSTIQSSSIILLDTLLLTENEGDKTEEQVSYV

Adenosine receptor A2a = Adenosine receptor A2a (Homo sapiens, UniProt P29274)
Sequence of Adenosine receptor A2a (P29274 whole entry): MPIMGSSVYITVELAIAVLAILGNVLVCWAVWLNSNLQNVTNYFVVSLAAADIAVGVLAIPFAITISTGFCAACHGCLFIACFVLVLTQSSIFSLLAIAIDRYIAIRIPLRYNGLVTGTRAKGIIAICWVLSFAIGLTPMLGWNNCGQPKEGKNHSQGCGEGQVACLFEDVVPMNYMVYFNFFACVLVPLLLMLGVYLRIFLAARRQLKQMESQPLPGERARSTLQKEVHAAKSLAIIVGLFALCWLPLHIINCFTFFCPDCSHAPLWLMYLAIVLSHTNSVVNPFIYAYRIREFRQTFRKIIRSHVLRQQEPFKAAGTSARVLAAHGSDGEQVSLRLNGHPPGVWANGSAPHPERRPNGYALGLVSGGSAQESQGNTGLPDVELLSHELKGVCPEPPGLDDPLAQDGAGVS

[8] = target: Kappa-type opioid receptor (Homo sapiens, UniProt P41145)
Sequence of Kappa-type opioid receptor (P41145 whole entry): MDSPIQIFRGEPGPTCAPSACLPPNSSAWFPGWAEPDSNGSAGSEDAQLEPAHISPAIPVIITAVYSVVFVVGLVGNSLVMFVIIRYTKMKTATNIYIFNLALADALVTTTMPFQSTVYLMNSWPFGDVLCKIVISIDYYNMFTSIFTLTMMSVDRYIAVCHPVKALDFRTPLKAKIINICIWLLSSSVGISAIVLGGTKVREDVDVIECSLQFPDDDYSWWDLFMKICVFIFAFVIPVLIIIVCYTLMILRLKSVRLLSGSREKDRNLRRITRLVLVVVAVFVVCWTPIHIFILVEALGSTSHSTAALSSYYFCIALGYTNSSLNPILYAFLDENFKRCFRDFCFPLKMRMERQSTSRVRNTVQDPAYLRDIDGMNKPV

Thromboxane A2 receptor = target: T4, Thromboxane A2 receptor (Homo sapiens, UniProt P21731)
T4 sequence (P21731 whole entry): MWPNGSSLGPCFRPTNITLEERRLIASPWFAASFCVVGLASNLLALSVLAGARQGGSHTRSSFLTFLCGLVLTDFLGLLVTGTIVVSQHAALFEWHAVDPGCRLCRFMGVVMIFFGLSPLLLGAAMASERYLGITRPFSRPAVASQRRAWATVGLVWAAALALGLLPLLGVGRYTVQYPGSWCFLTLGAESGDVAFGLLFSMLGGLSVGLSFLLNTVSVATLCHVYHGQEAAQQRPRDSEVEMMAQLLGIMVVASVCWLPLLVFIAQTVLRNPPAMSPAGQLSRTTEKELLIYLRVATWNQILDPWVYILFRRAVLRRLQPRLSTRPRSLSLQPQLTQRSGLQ

[9] = target: Gamma-aminobutyric acid receptor subunit alpha-1 (Rattus norvegicus, UniProt P62813)
Sequence of Gamma-aminobutyric acid receptor subunit alpha-1 (P62813 whole entry): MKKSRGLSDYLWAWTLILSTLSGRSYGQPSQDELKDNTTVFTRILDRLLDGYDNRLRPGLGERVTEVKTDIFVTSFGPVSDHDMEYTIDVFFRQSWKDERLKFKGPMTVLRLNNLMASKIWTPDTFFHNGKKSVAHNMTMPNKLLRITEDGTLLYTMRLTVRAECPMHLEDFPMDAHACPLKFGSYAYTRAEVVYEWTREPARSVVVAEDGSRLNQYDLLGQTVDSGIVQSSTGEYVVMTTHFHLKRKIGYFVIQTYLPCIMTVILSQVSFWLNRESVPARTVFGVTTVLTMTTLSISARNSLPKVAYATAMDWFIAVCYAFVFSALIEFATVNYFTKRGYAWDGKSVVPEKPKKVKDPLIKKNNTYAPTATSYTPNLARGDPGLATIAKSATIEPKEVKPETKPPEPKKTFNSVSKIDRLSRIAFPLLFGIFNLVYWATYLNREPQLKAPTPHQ

[10] = target: T5, Muscarinic acetylcholine receptor M2 (Homo sapiens, UniProt P08172); format: functional, cell-based
T5 sequence (P08172 whole entry): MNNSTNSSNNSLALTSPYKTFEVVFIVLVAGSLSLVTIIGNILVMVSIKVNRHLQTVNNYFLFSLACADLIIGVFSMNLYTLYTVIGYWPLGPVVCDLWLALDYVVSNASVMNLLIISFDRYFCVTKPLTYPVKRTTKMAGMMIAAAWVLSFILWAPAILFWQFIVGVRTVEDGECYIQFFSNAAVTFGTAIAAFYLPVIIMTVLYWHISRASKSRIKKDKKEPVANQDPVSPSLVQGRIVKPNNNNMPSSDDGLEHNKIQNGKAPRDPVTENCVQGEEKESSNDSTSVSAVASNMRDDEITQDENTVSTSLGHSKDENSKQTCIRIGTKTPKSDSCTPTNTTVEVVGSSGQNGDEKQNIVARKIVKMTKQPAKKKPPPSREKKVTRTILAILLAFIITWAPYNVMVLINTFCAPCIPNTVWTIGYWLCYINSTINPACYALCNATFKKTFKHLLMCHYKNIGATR

[11] = target: T5, Muscarinic acetylcholine receptor M2; format: functional, cell-based; remark: listed apart in the source
Mu-type opioid receptor = Mu-type opioid receptor (Homo sapiens, UniProt P35372); assay: biochemical; format: functional
Sequence of Mu-type opioid receptor (P35372 whole entry): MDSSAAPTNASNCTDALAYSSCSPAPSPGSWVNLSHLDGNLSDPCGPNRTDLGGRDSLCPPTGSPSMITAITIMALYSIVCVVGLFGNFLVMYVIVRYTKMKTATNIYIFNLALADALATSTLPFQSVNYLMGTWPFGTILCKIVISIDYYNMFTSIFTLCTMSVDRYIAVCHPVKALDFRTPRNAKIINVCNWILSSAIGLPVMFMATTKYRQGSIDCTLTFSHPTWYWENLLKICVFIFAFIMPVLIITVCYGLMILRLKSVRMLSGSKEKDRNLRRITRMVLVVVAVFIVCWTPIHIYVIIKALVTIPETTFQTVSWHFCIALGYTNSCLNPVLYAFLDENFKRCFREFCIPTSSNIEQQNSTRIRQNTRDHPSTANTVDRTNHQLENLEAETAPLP
Note: assay procedure not described here.

Sequence of 3',5'-cyclic-AMP phosphodiesterase 4D (Q08499 whole entry): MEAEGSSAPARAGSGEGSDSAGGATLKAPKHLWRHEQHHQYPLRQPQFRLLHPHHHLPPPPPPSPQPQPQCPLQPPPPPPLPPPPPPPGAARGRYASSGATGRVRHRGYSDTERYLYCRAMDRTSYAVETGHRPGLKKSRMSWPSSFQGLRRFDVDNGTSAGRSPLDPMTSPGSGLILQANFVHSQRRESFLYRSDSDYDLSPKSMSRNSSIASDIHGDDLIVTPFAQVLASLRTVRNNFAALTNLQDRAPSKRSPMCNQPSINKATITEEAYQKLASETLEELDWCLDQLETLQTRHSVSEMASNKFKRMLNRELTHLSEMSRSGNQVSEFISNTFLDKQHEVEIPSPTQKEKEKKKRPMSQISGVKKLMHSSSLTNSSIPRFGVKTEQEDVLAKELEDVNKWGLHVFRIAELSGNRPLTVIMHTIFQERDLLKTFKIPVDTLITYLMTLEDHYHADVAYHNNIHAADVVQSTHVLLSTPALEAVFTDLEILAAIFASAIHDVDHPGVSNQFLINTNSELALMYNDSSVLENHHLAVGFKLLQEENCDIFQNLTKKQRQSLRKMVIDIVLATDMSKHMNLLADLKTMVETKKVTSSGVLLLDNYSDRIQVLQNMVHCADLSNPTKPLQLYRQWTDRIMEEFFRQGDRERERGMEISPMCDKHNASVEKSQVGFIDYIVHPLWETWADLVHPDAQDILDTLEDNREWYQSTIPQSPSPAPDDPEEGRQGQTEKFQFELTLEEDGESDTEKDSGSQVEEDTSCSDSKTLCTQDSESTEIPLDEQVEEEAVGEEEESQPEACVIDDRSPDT

| Compound | AC50 [1] [µM] | AC50 [2] [µM] | AC50 [3] [µM] | AC50 [4] [µM] | AC50 [5] [µM] | AC50 [6] [µM] | AC50 [7] [µM] | AC50 (Adenosine receptor A2a) [µM] | AC50 [8] [µM] | AC50 (Thromboxane A2 receptor) [µM] | AC50 [9] [µM] | AC50 [10] [µM] | AC50 [11] [µM] | AC50 (Mu-type opioid receptor) [µM] |
| --- | --- | --- | --- | --- | --- | --- | --- | --- | --- | --- | --- | --- | --- | --- |
| OCc1cc(C(O)CNCCCCCCOCCCCc2ccccc2)ccc1O (configuration not stated) [SALMETEROL] | > 30 | > 10 | > 10 | > 10 | 5.4 | 0.845 | > 10 | > 30 | 11 | > 30 | > 10 |  |  |  |
| COc1cc2ncnc(Nc3ccc(F)c(Cl)c3)c2cc1NC(=O)/C=C/CN1CCCCC1 [DACOMITINIB ANHYDROUS] | 25 |  | 11 | > 30 |  | 15 |  | > 30 |  |  |  | > 10 | > 30 |  |
| Cn1cnc2c(F)c(Nc3ccc(Br)cc3Cl)c(C(=O)NOCCO)cc21 [SELUMETINIB] | > 30 |  | > 10 | > 10 |  | > 30 |  | > 30 |  | > 30 |  |  |  |  |
| O=C1CN=C(c2ccccn2)c2cc(Br)ccc2N1 [BROMAZEPAM] | > 30 | > 10 | > 10 | > 10 | > 10 | > 10 | > 10 | > 10 | > 10 | > 10 | > 10 | > 10 | > 10 |  |
| CC(=O)OCC(=O)[C@@]1(O)[C@H](C)C[C@H]2[C@@H]3CCC4=CC(=O)C=C[C@]4(C)[C@@]3(F)[C@@H](O)C[C@@]21C [DEXAMETHASONE ACETATE] | > 30 | > 10 | > 10 | > 10 | > 10 | > 30 | > 10 | > 30 | > 10 | 16 | > 10 | > 10 | > 10 |  |
| C/C(=C\C(=O)OCCCCCCCCC(=O)O)C[C@@H]1OC[C@H](C[C@@H]2O[C@H]2[C@@H](C)[C@H](C)O)[C@@H](O)[C@H]1O [MUPIROCIN] | > 30 | > 10 | > 10 | > 10 | > 10 | > 30 | > 10 | > 10 | > 10 | > 10 | > 10 | > 10 | > 10 |  |
| O=C1CN=C(c2ccccc2)c2cc([N+](=O)[O-])ccc2N1 [NITRAZEPAM] | 30 | > 10 |  | > 10 | > 10 | > 10 | > 10 | > 10 | > 10 | > 10 | > 10 | > 10 | > 10 | > 30 |
| CC(=O)[C@]1(O)Cc2c(O)c3c(c(O)c2[C@@H](O[C@H]2C[C@H](N)[C@H](O)[C@H](C)O2)C1)C(=O)c1ccccc1C3=O [IDARUBICIN] | > 30 |  |  | > 30 |  | 15 |  | > 30 |  | > 30 | > 30 |  |  | > 30 |
| Cn1c(=O)cc(N2CCC[C@@H](N)C2)n(Cc2ccccc2C#N)c1=O [ALOGLIPTIN] | > 30 |  | > 10 | > 10 |  | > 10 |  | > 30 | 8.32 | > 30 |  |  |  |  |
| NC1CCN(c2nc3c(cc2F)c(=O)c(C(=O)O)cn3-c2ccc(F)cc2F)C1 (configuration not stated) [TOSUFLOXACIN] | > 30 | > 30 |  | > 30 | > 30 | > 30 | > 30 | > 30 | > 30 | > 30 |  | > 30 | > 30 | > 30 |
| CCN(CC)CCN1C(=O)CN=C(c2ccccc2F)c2cc(Cl)ccc21 [FLURAZEPAM] | > 30 | > 10 | > 10 | > 10 | > 30 | > 30 | > 10 | > 30 | 0.21 | > 30 | > 10 | > 10 | > 10 |  |
| Oc1ccc2c(c1)[C@@]13CCCC[C@@]1(O)[C@@H](C2)N(CC1CCC1)CC3 [BUTORPHANOL] | > 30 | > 30 | > 30 | > 30 | > 30 | > 30 | > 30 | > 30 | 0.025 |  |  | > 30 | > 30 |  |
| CN(C(=O)c1c(O)c2ccccc2n(C)c1=O)c1ccccc1 [ROQUINIMEX] | > 30 |  | > 30 | > 30 |  | > 30 |  | > 30 |  |  |  |  |  |  |
| Cc1ncc2n1-c1ccc(Cl)cc1C(c1ccccc1F)=NC2 [MIDAZOLAM] | 10 | > 10 | > 10 | > 10 | > 30 | > 30 | > 10 | > 30 |  | > 30 | > 10 | > 10 | > 10 |  |
| COc1cc2c(cc1OC)C(CCc1ccc(Cl)cc1)N(C)CC2 (configuration not stated) [METHOPHOLINE] | > 30 | > 10 | > 10 | > 30 | > 10 | 28.7 | > 10 | > 30 | 1.2 | > 30 | > 10 | > 10 | > 10 |  |
| Nc1cc(-c2ccncc2)c[nH]c1=O [INAMRINONE] |  | > 10 |  | > 10 | > 10 | > 30 | > 10 | > 30 | > 10 | > 30 | > 10 | > 10 | > 10 |  |
